Activity calls are given as the source filed them. How the calls were made is not given here.

In PubChem BioAssay AID1745844 (Carcinogenic Potency Database (CPDB), 2022) one finds TD50 and carcinogen call data, which are given here for eight compounds.

The subject of this data set is rodent lifetime carcinogenesis bioassay, tumor incidence TD50. The experiment in a line: carcinogenic potency in animals, long-term in vivo studies, CPDB compilation (AID 1745844).

As for `CCCCN(N=O)C(N)=O`, the TD50 (commonly the dose at which the toxic effect under study appears in half of the subjects) by setting is: (rat, strain F344/DuCrj, females, in drinking water, site: all sites, lesion: several types, types named in the paper, dosed 50 weeks, study length 50 weeks) 24.7 mg/kg/day; (rat, strain F344/DuCrj, females, in drinking water, site: digestive tract, lesion: several types, types named in the paper, dosed 50 weeks, study length 50 weeks) 1.3 mg/kg/day; (rat, strain F344/DuCrj, females, in drinking water, site: ear duct, lesion: several types, types named in the paper, dosed 50 weeks, study length 50 weeks) 11.6 mg/kg/day; (rat, strain F344/DuCrj, females, in drinking water, site: ear duct, lesion: squamous-cell carcinoma, sebaceous, dosed 50 weeks, study length 50 weeks) 19.4 mg/kg/day; (rat, strain F344/DuCrj, females, in drinking water, site: esophagus, lesion: papilloma, dosed 50 weeks, study length 50 weeks) 6.58 mg/kg/day; (rat, strain F344/DuCrj, females, in drinking water, site: esophagus, lesion: several types, types named in the paper, dosed 50 weeks, study length 50 weeks) 3.21 mg/kg/day. Further, the TD50 (rat, strain F344/DuCrj, females, in drinking water, site: esophagus, lesion: squamous-cell carcinoma, dosed 50 weeks, study length 50 weeks) turned out to be 8.05 mg/kg/day; the TD50 (rat, strain F344/DuCrj, females, in drinking water, site: forestomach, lesion: papilloma, dosed 50 weeks, study length 50 weeks) is 4 mg/kg/day; the TD50 (rat, strain F344/DuCrj, females, in drinking water, site: forestomach, lesion: several types, types named in the paper, dosed 50 weeks, study length 50 weeks) is 2.43 mg/kg/day; the TD50 (rat, strain F344/DuCrj, females, in drinking water, site: forestomach, lesion: squamous-cell carcinoma, dosed 50 weeks, study length 50 weeks) is 10.2 mg/kg/day; the TD50 (rat, strain F344/DuCrj, females, in drinking water, site: pharynx, lesion: several types, types named in the paper, dosed 50 weeks, study length 50 weeks) stood at 8.05 mg/kg/day; the TD50 (rat, strain F344/DuCrj, females, in drinking water, site: pharynx, lesion: squamous-cell carcinoma, dosed 50 weeks, study length 50 weeks) came out at 10.2 mg/kg/day. Also, the TD50 is 13.5 mg/kg/day (rat, strain F344/DuCrj, females, in drinking water, site: tongue, lesion: papilloma, dosed 50 weeks, study length 50 weeks); 10.2 mg/kg/day (rat, strain F344/DuCrj, females, in drinking water, site: tongue, lesion: several types, types named in the paper, dosed 50 weeks, study length 50 weeks); 6 mg/kg/day (rat, strain F344/DuCrj, females, in drinking water, site: vagina, lesion: papilloma, dosed 50 weeks, study length 50 weeks); 5.05 mg/kg/day (rat, strain F344/DuCrj, females, in drinking water, site: vagina, lesion: several types, types named in the paper, dosed 50 weeks, study length 50 weeks); 10.2 mg/kg/day (rat, strain F344/DuCrj, males, in drinking water, site: all sites, lesion: several types, types named in the paper, dosed 50 weeks, study length 50 weeks); 0.91 mg/kg/day (rat, strain F344/DuCrj, males, in drinking water, site: digestive tract, lesion: several types, types named in the paper, dosed 50 weeks, study length 50 weeks). Further, the TD50 by setting is: (rat, strain F344/DuCrj, males, in drinking water, site: duodenum, lesion: several types, types named in the paper, dosed 50 weeks, study length 50 weeks) 11.8 mg/kg/day; (rat, strain F344/DuCrj, males, in drinking water, site: ear duct, lesion: several types, types named in the paper, dosed 50 weeks, study length 50 weeks) 11.8 mg/kg/day; (rat, strain F344/DuCrj, males, in drinking water, site: esophagus, lesion: papilloma, dosed 50 weeks, study length 50 weeks) 4.08 mg/kg/day; (rat, strain F344/DuCrj, males, in drinking water, site: esophagus, lesion: several types, types named in the paper, dosed 50 weeks, study length 50 weeks) 3.02 mg/kg/day; (rat, strain F344/DuCrj, males, in drinking water, site: esophagus, lesion: squamous-cell carcinoma, dosed 50 weeks, study length 50 weeks) 17 mg/kg/day; (rat, strain F344/DuCrj, males, in drinking water, site: forestomach, lesion: papilloma, dosed 50 weeks, study length 50 weeks) 3.25 mg/kg/day. Moreover, the TD50 is 2.62 mg/kg/day (rat, strain F344/DuCrj, males, in drinking water, site: forestomach, lesion: several types, types named in the paper, dosed 50 weeks, study length 50 weeks); 11.8 mg/kg/day (rat, strain F344/DuCrj, males, in drinking water, site: palate, soft, lesion: several types, types named in the paper, dosed 50 weeks, study length 50 weeks); 17 mg/kg/day (rat, strain F344/DuCrj, males, in drinking water, site: palate, soft, lesion: squamous-cell carcinoma, dosed 50 weeks, study length 50 weeks); 2.31 mg/kg/day (rat, strain Fischer 344, females, by gavage, site: colon, lesion: one or several types, types not named, dosed 40 weeks, study length 104 weeks); 0.267 mg/kg/day (rat, strain Fischer 344, females, by gavage, site: forestomach, lesion: one or several types, types not named, dosed 40 weeks, study length 104 weeks); 0.277 mg/kg/day (rat, strain Fischer 344, females, by gavage, site: lung, lesion: several types, types named in the paper, dosed 40 weeks, study length 104 weeks). Moreover, the TD50 by setting is: (rat, strain Fischer 344, females, by gavage, site: mammary gland, lesion: adenocarcinoma, dosed 40 weeks, study length 104 weeks) 0.758 mg/kg/day; (rat, strain Fischer 344, females, by gavage, site: uterus, lesion: several types, types named in the paper, dosed 40 weeks, study length 104 weeks) 0.551 mg/kg/day; (rat, strain Fischer 344, males, by gavage, site: colon, lesion: one or several types, types not named, dosed 40 weeks, study length 104 weeks) 1.61 mg/kg/day; (rat, strain Fischer 344, males, by gavage, site: forestomach, lesion: one or several types, types not named, dosed 40 weeks, study length 104 weeks) 0.259 mg/kg/day; (rat, strain Fischer 344, males, by gavage, site: lung, lesion: several types, types named in the paper, dosed 40 weeks, study length 104 weeks) 0.187 mg/kg/day; (rat, strain MRC-Wistar, females, in drinking water, site: all sites, lesion: myelocytic leukemia, dosed 39 weeks, study length 85 weeks) 3.27 mg/kg/day. Moreover, the TD50 is, setting by setting: (rat, strain MRC-Wistar, females, in drinking water, site: any site (literature study), lesion: one or several types, types not named, dosed 39 weeks, study length 85 weeks) 1.02 mg/kg/day; (rat, strain MRC-Wistar, females, in drinking water, site: liver, lesion: one or several types, types not named, dosed 39 weeks, study length 85 weeks) 6.63 mg/kg/day; (rat, strain MRC-Wistar, females, in drinking water, site: mammary gland, lesion: one or several types, types not named, dosed 39 weeks, study length 85 weeks) 6.63 mg/kg/day (inactive); (rat, strain MRC-Wistar, males, in drinking water, site: all sites, lesion: myelocytic leukemia, dosed 39 weeks, study length 85 weeks) 2.86 mg/kg/day; (rat, strain MRC-Wistar, males, in drinking water, site: any site (literature study), lesion: one or several types, types not named, dosed 39 weeks, study length 85 weeks) 1.64 mg/kg/day; (rat, strain MRC-Wistar, males, in drinking water, site: liver, lesion: one or several types, types not named, dosed 39 weeks, study length 85 weeks) 26.1 mg/kg/day.
Regarding `Nc1nc(-c2ccc([N+](=O)[O-])cc2)cs1`, the TD50 (mouse, strain Swiss, females, in feed, site: all sites, lesion: lymphocytic leukemia, dosed 46 weeks, study length 66 weeks) was 9.95 mg/kg/day and the TD50 (mouse, strain Swiss, females, in feed, site: any site (literature study), lesion: several types, types named in the paper, dosed 46 weeks, study length 66 weeks) was 9.95 mg/kg/day.
For the compound `O=C(OC[C@@H]1O[C@H](OC(=O)c2cc(O)c(O)c(OC(=O)c3cc(O)c(O)c(O)c3)c2)[C@@H](OC(=O)c2cc(O)c(O)c(OC(=O)c3cc(O)c(O)c(O)c3)c2)[C@H](OC(=O)c2cc(O)c(O)c(OC(=O)c3cc(O)c(O)c(O)c3)c2)[C@H]1OC(=O)c1cc(O)c(O)c(OC(=O)c2cc(O)c(O)c(O)c2)c1)c1cc(O)c(O)c(OC(=O)c2cc(O)c(O)c(O)c2)c1`, the TD50 reads like this: (rat, strain F344/DuCrj, females, in drinking water, site: any site (literature study), lesion: several types, types named in the paper, dosed 104 weeks, study length 114 weeks) 620 mg/kg/day (inactive); (rat, strain F344/DuCrj, females, in drinking water, site: liver, lesion: hepatocellular adenoma, dosed 104 weeks, study length 114 weeks) 16000 mg/kg/day (inactive). Also, the carcinogen call is, setting by setting: (rat, strain F344/DuCrj, males, in drinking water, site: any site (literature study), lesion: several types, types named in the paper, dosed 104 weeks, study length 114 weeks) “negative (inactive)”; (rat, strain F344/DuCrj, males, in drinking water, site: liver, lesion: hepatocellular adenoma, dosed 104 weeks, study length 114 weeks) “negative (inactive)”.
In the case of `C[C@@H]1C\C=C/C=C/C=C/C=C/[C@H](O[C@@H]2O[C@H](C)[C@@H](O)[C@H](N)[C@@H]2O)C[C@@H]2O[C@](O)(C[C@@H](O)C[C@@H]3O[C@@H]3/C=C\C(=O)O1)C[C@H](O)[C@H]2C(=O)O`, the carcinogen call runs as follows: (rat, strain CFN, females, in feed, site: liver, lesion: malignant hepatoma, dosed 105 weeks, study length 105 weeks) “negative (inactive)”; (rat, strain CFN, males, in feed, site: thymus gland, lesion: thymoma, dosed 105 weeks, study length 105 weeks) “negative (inactive)”. Besides, the TD50 (rat, strain CFN, males, in feed, site: lung, lesion: lymphosarcoma, dosed 105 weeks, study length 105 weeks) was 1970 mg/kg/day (inactive).
As to `CC(C)(C)NCC(O)c1cc(O)cc(O)c1` (stereo not given), the TD50 (rat, strain Charles River CD (Sprague-Dawley), females, in feed, site: mesovarium, lesion: leiomyoma, dosed 104 weeks, study length 104 weeks) was 410 mg/kg/day.
As to `C=CCN(CC(C)O)N=O` (stereo not given), the TD50 was 4.67 mg/kg/day (rat, strain Fischer 344, females, in drinking water, site: esophagus, lesion: several types, types named in the paper, dosed 50 weeks, study length 65 weeks); 1.38 mg/kg/day (rat, strain Fischer 344, females, in drinking water, site: liver, lesion: hepatocellular carcinoma, dosed 50 weeks, study length 65 weeks); 0.877 mg/kg/day (rat, strain Fischer 344, females, in drinking water, site: nasal cavity, lesion: several types, types named in the paper, dosed 50 weeks, study length 65 weeks).
Consider `N[C@@H](CC(=O)O)C(=O)O`, for which the TD50 is, setting by setting: (rat, strain F344/DuCrj, females, in drinking water, site: any site (literature study), lesion: several types, types named in the paper, dosed 100 weeks, study length 100 weeks) 8340 mg/kg/day (inactive); (rat, strain F344/DuCrj, males, in drinking water, site: any site (literature study), lesion: several types, types named in the paper, dosed 100 weeks, study length 100 weeks) 2720 mg/kg/day (inactive). The carcinogen call reads like this: (rat, strain F344/DuCrj, females, in drinking water, site: liver, lesion: one or several types, types not named, dosed 100 weeks, study length 100 weeks) “negative (inactive)”; (rat, strain F344/DuCrj, males, in drinking water, site: liver, lesion: one or several types, types not named, dosed 100 weeks, study length 100 weeks) “negative (inactive)”.
For `[N]=O`, where the note is “mouse, strain ICR/Jcl, females, inhaled, site: lung, lesion: adenoma, dosed 126 weeks, study length 126 weeks”, the carcinogen call is “negative (inactive)”.
